Source: patent publication US9650395B2, “Antibacterial compounds and methods for use” (PTC Therapeutics, Inc., priority 2011, dated 2017)
≈ marks a conversion by molar mass, not a printed value. Like-named read-outs stand apart in the source and are kept apart here.

How the values were obtained:
[1] = test system: super sensitive Gram-negative Escherichia coli (E. coli) BAS849; test: Antibacterial activity, microbroth dilution MIC, E. coli BAS849; type: cell-based; details: Escherichia coli, read-out: MIC, BAS849
[2] = test system: control Gram-negative E. coli 25922 strain; test: Antibacterial activity, microbroth dilution MIC, E. coli 25922; type: cell-based, Escherichia coli; details: Escherichia coli; E. coli 25922, microbroth dilution; read-out: MIC, 25922
[3] = test system: Gram-positive Staphylococcus aureus (S. aureus) 29213; test: Antibacterial activity, microbroth dilution MIC, S. aureus 29213; type: cell-based; details: Staphylococcus aureus; S. aureus 29213, microbroth dilution; read-out: MIC, 29213
[4] = test system: quinolone resistant E. coli LZ3111; test: Antibacterial activity, MIC, quinolone resistant E. coli LZ3111; type: cell-based, Escherichia coli; details: Escherichia coli, read-out: MIC, LZ3111
From the text: (§1) The antibacterial activity from a microbroth dilution method may be presented as the minimum inhibitory concentration (MIC in […]). The MIC value is the lowest concentration of a drug which prevents macroscopically visible bacterial growth under test conditions.
Mutations in these regions are known to confer a high level resistance to the quinolone class of antibiotics.

[5] = test system: E. coli ELZ4000 (MDR clinical isolate); test: Antibacterial activity, MIC, MDR E. coli ELZ4000; type: cell-based, Escherichia coli; details: Escherichia coli; E. coli ELZ4000, MDR clinical isolate; read-out: MIC ELZ4000
[6] = test system: E. coli ELZ4251 (MDR clinical isolate); test: Antibacterial activity, MIC, MDR E. coli ELZ4251; type: cell-based, Escherichia coli; details: Escherichia coli, E. coli ELZ4251, MDR clinical isolate; read-out: MIC ELZ4251
[7] = test system: Pseudomonas aeruginosa (P. aeruginosa) 27853; test: Antibacterial activity, MIC, P. aeruginosa 27853; type: cell-based; details: Pseudomonas aeruginosa, P. aeruginosa 27853; read-out: MIC 27853
From the text: as §1
Antibacterial activity of test compounds against the Gram-negative bacterium Pseudomonas aeruginosa (P. aeruginosa) 27853 is shown in Table 5.

[8] = E. coli BAS849, microbroth dilution

Structure (SMILES) | MIC [1, 8] [µg/mL] | MIC [2] [µg/mL] | MIC [3] [µg/mL] | MIC [4] [µg/mL] | MIC [5] [µg/mL] | MIC [6] [µg/mL] | MIC [7] [µg/mL] | MIC [1] [µg/mL]
CCc1c(-c2ccc(N3CC[C@H](F)C3)cc2)[nH]c(=O)c(C(=O)O)c1O [Cpd 85, 5-ethyl-6-{4-[(3S)-3-fluoropyrrolidin-1-yl]phenyl}-4-hydroxy-2-oxo-1,2-dihydropyridine-3-carboxylic acid] | < 1 | 12.5 to 150 (≈ 36.1 to 433 µM) | 3.5 to 12.5 (≈ 10.1 to 36.1 µM) | 12.5 to 150 (≈ 36.1 to 433 µM) | 12.5 to 150 (≈ 36.1 to 433 µM) | 12.5 to 150 (≈ 36.1 to 433 µM) | 12.5 to 150 (≈ 36.1 to 433 µM) | 
CCc1cc(C(=O)O)c(=O)[nH]c1-c1ccc(N2CCC(N=[N+]=[N-])C2)cc1 (stereo not drawn) [Cpd 129, 6-[4-(3-azidopyrrolidin-1-yl)phenyl]-5-ethyl-2-oxo-1,2-dihydropyridine-3-carboxylic acid] | < 1 | 1 to 3.5 (≈ 2.83 to 9.9 µM) | 3.5 to 12.5 (≈ 9.9 to 35.4 µM) | 12.5 to 150 (≈ 35.4 to 424 µM) | 12.5 to 150 (≈ 35.4 to 424 µM) | 12.5 to 150 (≈ 35.4 to 424 µM) | 12.5 to 150 (≈ 35.4 to 424 µM) | 
CCc1cc(C(=O)O)c(=O)[nH]c1-c1ccc(N2CCC(N)C2)cc1.O=C(O)C(F)(F)F (stereo not drawn) [Cpd 131, 6-[4-(3-aminopyrrolidin-1-yl)phenyl]-5-ethyl-2-oxo-1,2-dihydropyridine-3-carboxylic acid trifluoroacetate] |  | 3.5 to 12.5 | 12.5 to 150 | 12.5 to 150 | 12.5 to 150 | 12.5 to 150 | 12.5 to 150 | < 1
CCc1cc(C(=O)O)c(=O)[nH]c1-c1ccc(N2CCCC2C)cc1 (stereo not drawn) [Cpd 139, 5-ethyl-6-[4-(2-methylpyrrolidin-1-yl)phenyl]-2-oxo-1,2-dihydropyridine-3-carboxylic acid] | < 1 | 3.5 to 12.5 (≈ 10.7 to 38.3 µM) | 3.5 to 12.5 (≈ 10.7 to 38.3 µM) | 12.5 to 150 (≈ 38.3 to 460 µM) | 12.5 to 150 (≈ 38.3 to 460 µM) | 12.5 to 150 (≈ 38.3 to 460 µM) | 12.5 to 150 (≈ 38.3 to 460 µM) | 
CCc1cc(C(=O)O)c(=O)[nH]c1-c1ccc(N2CCC(N(C)C)C2)cc1 (stereo not drawn) [Cpd 149, 6-{4-[3-(dimethylamino)pyrrolidin-1-yl]phenyl}-5-ethyl-2-oxo-1,2-dihydropyridine-3-carboxylic acid] | < 1 | 1 to 3.5 (≈ 2.81 to 9.85 µM) | 12.5 to 150 (≈ 35.2 to 422 µM) | 12.5 to 150 (≈ 35.2 to 422 µM) | 12.5 to 150 (≈ 35.2 to 422 µM) | 12.5 to 150 (≈ 35.2 to 422 µM) | 12.5 to 150 (≈ 35.2 to 422 µM) | 
CCc1cc(C(=O)O)c(=O)[nH]c1-c1ccc(N2CCC(F)C2)cc1 (stereo not drawn) [Cpd 152, 5-ethyl-6-[4-(3-fluoropyrrolidin-1-yl)phenyl]-2-oxo-1,2-dihydropyridine-3-carboxylic acid] | < 1 | 1 to 3.5 (≈ 3.03 to 10.6 µM) | 3.5 to 12.5 (≈ 10.6 to 37.8 µM) | 12.5 to 150 (≈ 37.8 to 454 µM) | 12.5 to 150 (≈ 37.8 to 454 µM) | 12.5 to 150 (≈ 37.8 to 454 µM) | 3.5 to 12.5 (≈ 10.6 to 37.8 µM) | 
CCc1cc(C(=O)O)c(=O)[nH]c1-c1ccc(N2CC[C@H](F)C2)cc1 [Cpd 153, 5-ethyl-6-{4-[(3S)-3-fluoropyrrolidin-1-yl]phenyl}-2-oxo-1,2-dihydropyridine-3-carboxylic acid] | < 1 | < 1 | 1 to 3.5 (≈ 3.03 to 10.6 µM) | 12.5 to 150 (≈ 37.8 to 454 µM) | 12.5 to 150 (≈ 37.8 to 454 µM) | 12.5 to 150 (≈ 37.8 to 454 µM) | 3.5 to 12.5 (≈ 10.6 to 37.8 µM) | 
CCc1cc(C(=O)O)c(=O)[nH]c1-c1ccc(N(C)c2ccccc2)cc1 [Cpd 158, 5-ethyl-6-{4-[methyl(phenyl)amino]phenyl}-2-oxo-1,2-dihydropyridine-3-carboxylic acid] | < 1 | 3.5 to 12.5 (≈ 10 to 35.9 µM) | 3.5 to 12.5 (≈ 10 to 35.9 µM) | 12.5 to 150 (≈ 35.9 to 431 µM) | 12.5 to 150 (≈ 35.9 to 431 µM) | 12.5 to 150 (≈ 35.9 to 431 µM) | 12.5 to 150 (≈ 35.9 to 431 µM) | 
CCc1cc(C(=O)O)c(=O)[nH]c1-c1ccc(N2CCC(NCc3ccccc3)C2)cc1.Cl (stereo not drawn) [Cpd 174, 6-{4-[3-(benzylamino)pyrrolidin-1-yl]phenyl}-5-ethyl-2-oxo-1,2-dihydropyridine-3-carboxylic acid hydrochloride] | < 1 | < 1 | 12.5 to 150 | 12.5 to 150 | 12.5 to 150 | 12.5 to 150 | 12.5 to 150 | 
CCc1cc(C(=O)O)c(=O)[nH]c1-c1ccc(N2CC3NCCOC3C2)cc1.Cl (stereo not drawn) [Cpd 179, 5-ethyl-6-[4-(hexahydropyrrolo[3,4-b][1,4]oxazin-6(2H)-yl)phenyl]-2-oxo-1,2-dihydropyridine-3-carboxylic acid hydrochloride] | 1 to 3.5 | 3.5 to 12.5 | 12.5 to 150 | 12.5 to 150 | 12.5 to 150 | 12.5 to 150 |  | 
